In ChEMBL document CHEMBL4680155, “One-pot synthesis and molecular docking of some new spiropyranindol-2-one derivatives as immunomodulatory agents and in vitro antimicrobial potential with DNA gyrase inhibitor” (Eur J Med Chem, 2020):
Converted amounts (≈) assume the structure as drawn.

Experiments:
Staphylococcus aureus [1] = assay: Antibacterial activity against Staphylococcus aureus ATCC 29213 assessed as reduction in bacterial growth incubated for 1 day by paper disk diffusion method; type: functional; details: ATCC 29213, 24 h
Aspergillus brasiliensis [2] = assay: Antifungal activity against Aspergillus brasiliensis ATCC 16404 assessed as diameter of inhibition zone at 0.5 mg/ml incubated for 72 hrs by agar diffusion method; type: functional; details: read-out: DIZ
Candida albicans [3] = assay: Antifungal activity against Candida albicans ATCC 10231 assessed as diameter of inhibition zone at 0.5 mg/ml incubated for 24 hrs by agar diffusion method; type: functional; details: read-out: DIZ
Staphylococcus aureus [4] = assay: Antibacterial activity against multidrug resistant Staphylococcus aureus ATCC 43300 assessed as diameter of inhibition zone at 0.5 mg/ml incubated for 24 hrs by agar diffusion method; type: functional; details: read-out: DIZ
Staphylococcus aureus [5] = assay: Antibacterial activity against multidrug resistant Staphylococcus aureus ATCC 33591 assessed as diameter of inhibition zone at 0.5 mg/ml incubated for 24 hrs by agar diffusion method; type: functional; details: read-out: DIZ
Staphylococcus aureus [6] = assay: Antibacterial activity against multidrug resistant Staphylococcus aureus ATCC 33591 assessed as reduction in bacterial growth incubated for 1 day by paper disk diffusion method; type: functional; details: ATCC 33591, 24 h
Neutrophil = assay: Immunomodulatory activity in human neutrophils infected with bacteria assessed as increase in bacterial killing by measuring reduced NBT incubated for 30 mins by NBT dye based spectrophotometry; type: functional; design: concentration or dose not given beside the values; details: 0.5 h
Staphylococcus aureus [7] = assay: Bactericidal activity against Staphylococcus aureus ATCC 29213 incubated for 24 hrs followed by transferring to freshly prepared broth medium and measured after 24 hrs by broth microdilution assay; type: functional; details: time 48 hrs
Staphylococcus aureus [8] = assay: Bactericidal activity against Staphylococcus aureus ATCC 33591 incubated for 24 hrs followed by transferring to freshly prepared broth medium and measured after 24 hrs by broth microdilution assay; type: functional; details: time 48 hrs
Pseudomonas aeruginosa [9] = assay: Antibacterial activity against multidrug resistant Pseudomonas aeruginosa ATCC BAA-2111 assessed as diameter of inhibition zone at 0.5 mg/ml incubated for 24 hrs by agar diffusion method; type: functional; details: read-out: DIZ
Aspergillus brasiliensis [10] = assay: Fungicidal activity against Aspergillus brasiliensis ATCC 16404 incubated for 72 hrs followed by transferring to freshly prepared broth medium and measured after 24 hrs by broth microdilution assay; type: functional; details: time 96 hrs
Staphylococcus aureus [11] = assay: Bactericidal activity against Staphylococcus aureus ATCC 43300 incubated for 24 hrs followed by transferring to freshly prepared broth medium and measured after 24 hrs by broth microdilution assay; type: functional; details: time 48 hrs
Enterococcus faecalis [12] = assay: Antibacterial activity against Enterococcus faecalis ATCC 29212 assessed as diameter of inhibition zone at 0.5 mg/ml incubated for 24 hrs by agar diffusion method; type: functional; details: read-out: DIZ
Enterococcus faecalis [13] = assay: Antibacterial activity against Enterococcus faecalis ATCC 29212 assessed as reduction in bacterial growth incubated for 1 day by paper disk diffusion method; type: functional; details: ATCC 29212, 24 h
Salmonella typhimurium [14] = assay: Bactericidal activity against Salmonella typhi ATCC 6539 incubated for 24 hrs followed by transferring to freshly prepared broth medium and measured after 24 hrs by broth microdilution assay; type: functional, Salmonella enterica subsp. enterica serovar […]; details: Salmonella enterica, time 48 hrs
Pseudomonas aeruginosa [15] = assay: Antibacterial activity against multidrug resistant Pseudomonas aeruginosa ATCC BAA-2111 assessed as reduction in bacterial growth incubated for 1 day by paper disk diffusion method; type: functional; details: ATCC BAA-2111, 24 h
Staphylococcus aureus [16] = assay: Antibacterial activity against Staphylococcus aureus ATCC 29213 assessed as diameter of inhibition zone at 0.5 mg/ml incubated for 24 hrs by agar diffusion method; type: functional; details: read-out: DIZ
DNA gyrase = DNA gyrase (Staphylococcus aureus, UniProt P0A0K8+P20831); assay: Inhibition of Staphylococcus aureus DNA gyrase using relaxed pBR322 DNA as substrate incubated for 45 mins by agarose gel electrophoresis method; type: protein-complex assay
Chain of DNA gyrase (P0A0K8 whole entry, the tested form may be a part): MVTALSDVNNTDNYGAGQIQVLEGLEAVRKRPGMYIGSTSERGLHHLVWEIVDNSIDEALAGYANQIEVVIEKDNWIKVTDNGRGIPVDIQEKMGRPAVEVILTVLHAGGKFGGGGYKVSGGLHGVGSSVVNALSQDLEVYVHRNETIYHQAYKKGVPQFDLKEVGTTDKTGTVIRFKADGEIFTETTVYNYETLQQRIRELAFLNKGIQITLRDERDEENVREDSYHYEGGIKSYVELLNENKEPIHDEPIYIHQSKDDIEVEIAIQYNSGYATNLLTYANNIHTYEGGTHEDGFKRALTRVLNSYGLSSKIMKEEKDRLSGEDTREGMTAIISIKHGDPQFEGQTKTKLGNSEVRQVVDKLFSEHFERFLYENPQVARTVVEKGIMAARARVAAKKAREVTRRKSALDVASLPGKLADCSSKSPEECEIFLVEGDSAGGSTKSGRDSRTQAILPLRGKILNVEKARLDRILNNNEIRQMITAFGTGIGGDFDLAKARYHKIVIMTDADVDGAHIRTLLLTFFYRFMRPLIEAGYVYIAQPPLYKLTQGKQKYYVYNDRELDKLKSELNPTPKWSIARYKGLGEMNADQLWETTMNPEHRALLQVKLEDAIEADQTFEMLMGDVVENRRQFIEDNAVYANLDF
Chain of DNA gyrase (P20831 whole entry, the tested form may be a part): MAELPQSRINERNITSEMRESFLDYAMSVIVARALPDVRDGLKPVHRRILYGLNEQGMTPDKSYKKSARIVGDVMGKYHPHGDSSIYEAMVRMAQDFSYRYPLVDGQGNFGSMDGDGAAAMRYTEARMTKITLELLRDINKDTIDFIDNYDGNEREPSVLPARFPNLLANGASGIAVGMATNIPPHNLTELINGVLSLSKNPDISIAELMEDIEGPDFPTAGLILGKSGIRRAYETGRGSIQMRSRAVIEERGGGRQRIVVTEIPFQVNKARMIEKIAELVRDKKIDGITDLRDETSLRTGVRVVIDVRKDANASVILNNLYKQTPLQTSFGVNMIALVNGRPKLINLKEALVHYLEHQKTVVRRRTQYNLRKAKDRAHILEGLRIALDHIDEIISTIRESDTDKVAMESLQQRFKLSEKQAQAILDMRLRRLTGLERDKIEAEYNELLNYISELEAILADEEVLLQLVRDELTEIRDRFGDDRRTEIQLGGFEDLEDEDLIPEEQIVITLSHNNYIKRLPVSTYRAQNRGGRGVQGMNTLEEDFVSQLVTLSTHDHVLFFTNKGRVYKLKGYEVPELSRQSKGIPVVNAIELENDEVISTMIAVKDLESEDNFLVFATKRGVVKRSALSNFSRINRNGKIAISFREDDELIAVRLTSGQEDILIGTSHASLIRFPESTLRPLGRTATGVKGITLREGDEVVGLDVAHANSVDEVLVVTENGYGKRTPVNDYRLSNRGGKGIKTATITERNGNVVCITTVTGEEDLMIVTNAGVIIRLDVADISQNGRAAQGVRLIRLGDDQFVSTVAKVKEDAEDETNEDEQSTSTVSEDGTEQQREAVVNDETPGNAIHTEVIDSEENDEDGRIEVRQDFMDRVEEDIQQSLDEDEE

Escherichia coli [17] = assay: Antibacterial activity against multidrug resistant Escherichia coli ATCC BAA-196 assessed as diameter of inhibition zone at 0.5 mg/ml incubated for 24 hrs by agar diffusion method; type: functional; details: read-out: DIZ
Salmonella typhimurium [18] = assay: Antibacterial activity against Salmonella typhi ATCC 6539 assessed as diameter of inhibition zone at 0.5 mg/ml incubated for 24 hrs by agar diffusion method; type: functional, Salmonella enterica subsp. enterica serovar Typhimurium; details: Salmonella enterica, read-out: DIZ
Enterococcus faecalis [19] = assay: Bactericidal activity against Enterococcus faecalis ATCC 29212 incubated for 24 hrs followed by transferring to freshly prepared broth medium and measured after 24 hrs by broth microdilution assay; type: functional; details: time 48 hrs
Salmonella typhimurium [20] = assay: Antibacterial activity against Salmonella typhi ATCC 6539 assessed as reduction in bacterial growth incubated for 1 day by paper disk diffusion method; type: functional, Salmonella enterica subsp. enterica serovar Typhimurium; details: Salmonella enterica, ATCC 6539, 24 h
Pseudomonas aeruginosa [21] = assay: Bactericidal activity against Pseudomonas aeruginosa ATCC BAA-2111 incubated for 24 hrs followed by transferring to freshly prepared broth medium and measured after 24 hrs by broth microdilution assay; type: functional; details: time 48 hrs
Aspergillus brasiliensis [22] = assay: Antifungal activity against Aspergillus brasiliensis ATCC 16404 assessed as reduction in bacterial growth incubated for 3 days by paper disk diffusion method; type: functional; details: ATCC 16404, 72 h, time 3 day
Escherichia coli [23] = assay: Bactericidal activity against Escherichia coli ATCC BAA-196 incubated for 24 hrs followed by transferring to freshly prepared broth medium and measured after 24 hrs by broth microdilution assay; type: functional; details: time 48 hrs
Escherichia coli [24] = assay: Antibacterial activity against multidrug resistant Escherichia coli ATCC BAA-196 assessed as reduction in bacterial growth incubated for 1 day by paper disk diffusion method; type: functional; details: ATCC BAA-196, 24 h
Escherichia coli [25] = assay: Antibacterial activity against Escherichia coli ATCC 25922 assessed as diameter of inhibition zone at 0.5 mg/ml incubated for 24 hrs by agar diffusion method; type: functional; details: read-out: DIZ
Escherichia coli [26] = assay: Antibacterial activity against Escherichia coli ATCC 25922 assessed as reduction in bacterial growth incubated for 1 day by paper disk diffusion method; type: functional; details: ATCC 25922, 24 h
Staphylococcus aureus [27] = assay: Antibacterial activity against multidrug resistant Staphylococcus aureus ATCC 43300 assessed as reduction in bacterial growth incubated for 1 day by paper disk diffusion method; type: functional; details: ATCC 43300, 24 h
Candida albicans [28] = assay: Fungicidal activity against Candida albicans ATCC 10231 incubated for 24 hrs followed by transferring to freshly prepared broth medium and measured after 24 hrs by broth microdilution assay; type: functional; details: time 48 hrs
Candida albicans [29] = assay: Antifungal activity against Candida albicans ATCC 10231 assessed as reduction in bacterial growth incubated for 1 day by paper disk diffusion method; type: functional; details: ATCC 10231, 24 h
Escherichia coli [30] = assay: Bactericidal activity against Escherichia coli ATCC 25922 incubated for 24 hrs followed by transferring to freshly prepared broth medium and measured after 24 hrs by broth microdilution assay; type: functional; details: time 48 hrs

Row | SMILES | MIC (Staphylococcus aureus [1]) | zone of inhibition at 500 µg/mL (Aspergillus brasiliensis [2]) | zone of inhibition at 500 µg/mL (Candida albicans [3]) | zone of inhibition at 500 µg/mL (Staphylococcus aureus [4]) | zone of inhibition at 500 µg/mL (Staphylococcus aureus [5]) | MIC (Staphylococcus aureus [6]) | Activity (Neutrophil) | MBC (Staphylococcus aureus [7]) | MBC (Staphylococcus aureus [8]) | zone of inhibition at 500 µg/mL (Pseudomonas aeruginosa [9]) | MFC (Aspergillus brasiliensis [10]) | MBC (Staphylococcus aureus [11]) | zone of inhibition at 500 µg/mL (Enterococcus faecalis [12]) | MIC (Enterococcus faecalis [13]) | MBC (Salmonella typhimurium [14]) | MIC (Pseudomonas aeruginosa [15]) | zone of inhibition at 500 µg/mL (Staphylococcus aureus [16]) | IC50 (DNA gyrase) | zone of inhibition at 500 µg/mL (Escherichia coli [17]) | zone of inhibition at 500 µg/mL (Salmonella typhimurium [18]) | further results
1 | N#CC(C#N)=C1C(=O)Nc2ccc(S(=O)(=O)N3CCOCC3)cc21 | 35.5 µg/mL (≈ 103 µM) | 19 mm | 22 mm | 24 mm | 24 mm | 4.44 µg/mL (≈ 12.9 µM) | 145.7% | 46.2 µg/mL (≈ 134 µM) | 8.88 µg/mL (≈ 25.8 µM) | 23 mm | 100 µg/mL (≈ 290 µM) | 5.04 µg/mL (≈ 14.6 µM) | 23 mm | 8.88 µg/mL (≈ 25.8 µM) | 28.1 µg/mL (≈ 81.6 µM) | 4.44 µg/mL (≈ 12.9 µM) | 24 mm | 26.4 µM | 25 mm | 23 mm | MBC (Enterococcus faecalis [19]): 11.5 µg/mL (≈ 33.5 µM); MIC (Salmonella typhimurium [20]): 15.6 µg/mL (≈ 45.4 µM); MBC (Pseudomonas aeruginosa [21]): 7.99 µg/mL (≈ 23.2 µM); MIC (Aspergillus brasiliensis [22]): 62.5 µg/mL (≈ 182 µM); MBC (Escherichia coli [23]): 6.24 µg/mL (≈ 18.1 µM); MIC (Escherichia coli [24]): 3.9 µg/mL (≈ 11.3 µM); zone of inhibition at 500 µg/mL (Escherichia coli [25]): 25 mm; MIC (Escherichia coli [26]): 7.81 µg/mL (≈ 22.7 µM); MIC (Staphylococcus aureus [27]): 3.9 µg/mL (≈ 11.3 µM); MFC (Candida albicans [28]): 12.5 µg/mL (≈ 36.3 µM); MIC (Candida albicans [29]): 6.25 µg/mL (≈ 18.2 µM); MBC (Escherichia coli [30]): 15.6 µg/mL (≈ 45.4 µM)
2 | CCOC(=O)C1=C(N)OC(c2ccccc2)=C(C(C)=O)C12C(=O)Nc1ccc(S(=O)(=O)N3CCOCC3)cc12 (centres undefined) | 62.5 µg/mL (≈ 113 µM) | 21 mm | 24 mm | 23 mm | 24 mm | 3.9 µg/mL (≈ 7.04 µM) | 95.6% | 81.2 µg/mL (≈ 147 µM) | 7.8 µg/mL (≈ 14.1 µM) | 25 mm | 71.1 µg/mL (≈ 128 µM) | 7.8 µg/mL (≈ 14.1 µM) | 25 mm | 12.5 µg/mL (≈ 22.6 µM) | 49.8 µg/mL (≈ 89.9 µM) | 2.6 µg/mL (≈ 4.7 µM) | 23 mm | 20.1 µM | 24 mm | 23 mm | MBC (Enterococcus faecalis [19]): 25 µg/mL (≈ 45.2 µM); MIC (Salmonella typhimurium [20]): 35.5 µg/mL (≈ 64.2 µM); MBC (Pseudomonas aeruginosa [21]): 5.2 µg/mL (≈ 9.39 µM); MIC (Aspergillus brasiliensis [22]): 35.5 µg/mL (≈ 64.2 µM); MBC (Escherichia coli [23]): 6.24 µg/mL (≈ 11.3 µM); MIC (Escherichia coli [24]): 3.9 µg/mL (≈ 7.04 µM); zone of inhibition at 500 µg/mL (Escherichia coli [25]): 25 mm; MIC (Escherichia coli [26]): 6.25 µg/mL (≈ 11.3 µM); MIC (Staphylococcus aureus [27]): 3.9 µg/mL (≈ 7.04 µM); MFC (Candida albicans [28]): 24.9 µg/mL (≈ 44.9 µM); MIC (Candida albicans [29]): 17.8 µg/mL (≈ 32.1 µM); MBC (Escherichia coli [30]): 12.5 µg/mL (≈ 22.6 µM)
